# Test results from patent US20250025444A1, “TREATMENT OF NEURODEGENERATIVE DISEASES VIA ADMINISTRATION OF BUNTANETAP AND A PHOSPHODIESTERASE INHIBITOR” (ANNOVIS BIO, INC., priority 2022, published 2025).
# Marks after values point to notes of the source that are not given here.
# Key:
# [1] = tested on: early AD patients and early PD patients; settings: cited from earlier work
# [2] = tested on: APP, Tau, and αSYN in the cerebrospinal fluid (CSF); assay: Study of MCI subjects: CSF and plasma markers before and after 10 days of buntanetap (proof of mechanism); settings: 4×60 mg/day
# [3] = tested on: traumatic brain injury rats; settings: cited from earlier work
# [4] = tested on: human SNCAA53T tg mouse model of PD; settings: cited from earlier work
# tau [5] = settings: unpublished observation, Peter Davies Laboratory; cited from earlier work
# [6] = tested on: patients with mild to moderate AD; assay: Randomized, double-blind, placebo-controlled Phase II/III study in mild to moderate AD (NCT05686044); type: in vivo, human
# Description: A randomized, double-blind, placebo-controlled Phase II/III study trial investigating the efficacy, safety, and tolerability of buntanetap in patients with mild to moderate AD was conducted. This was a dose-ranging study where patients received either one of three doses of buntanetap (7.5 mg, 15 mg, or 30 mg) or placebo on top of their standard of care for 12 weeks. In this study, over 700 patients were screened, a total of 353 patients were enrolled, and 325 patients completed the study across 54 sites in the US. The study included mild to moderate AD patients whose Mini Mental State Examination (MMSE) scores at baseline ranged from 14 to 24. (www.clinicaltrials.gov (NCT05686044)).
# Beyond safety, the trial assessed the changes in two co-primary endpoints: Alzheimer's Disease Assessment Scale-Cognitive Subscale 11 (ADAS-Cog 11) and Alzheimer's Disease Cooperative Study Clinician's Global Impression of Change (ADCS-CGIC), which assess cognition and activities of daily living. The study monitored for safety and collected plasma to measure several biomarkers to assess the disease state, potential disease progression, and treatment effects.
# [7] = tested on: APP/PS1 transgenic (tg) mouse model of AD; settings: cited from earlier work
# αSYN [8] = settings: transgenic Parkinson's animals, brain and gut; cited from earlier work
# αSYN [9] = settings: neuroblastoma cells; cited from earlier work
# [10] = tested on: fully differentiated Down syndrome nerve cells; settings: cited from earlier work
# APP [11] = settings: literature report; cited from earlier work
# [12] = tested on: early AD patients and early PD patients; assay: Phase 2a double-blind, placebo-controlled study in early AD and early PD patients; type: in vivo, human
# tau [13] = settings: Human tau mice, unpublished observation; cited from earlier work
# APP and its fragments [14] = settings: APP/PS1 transgenic mice, literature report; cited from earlier work
# clinical = settings: human, brain (relative to plasma)
# APP and its fragments [15] = assay: APP in vivo: APP/PS1 transgenic AD mice, hippocampus
# Text: (§1) Buntanetap's effect on neurotoxic proteins.
# FIG. 2A, APP in vivo. […] GAPDH and Synaptophysin were loading controls. FIG. 2 also includes a collection of graphs showing relative density of APP plotted against control and time after buntanetap treatment; relative density of CTFβ plotted against control and time after buntanetap treatment; relative density of CTFα plotted against control and time after buntanetap treatment; Aβ42 levels in brain tissue plotted against control and time after buntanetap treatment; and Aβ40 levels in brain tissue plotted against control and time after buntanetap treatment. Finally, FIG. 2 also includes a Western blot showing levels of APP, NSB, CTFβ, and CTFα after buntanetap treatment over time (minutes).
# rat acute glaucoma model = settings: cited from earlier work
# [16] = tested on: mouse hippocampal slices perfused with 200 nM oligomeric Aβ; assay: Electrophysiological analysis (LTP, CA1 fEPSP) of hippocampal slices perfused with oligomeric Aβ; type: cell-based, C57BI6 mice; settings: for Aβ-induced LTP defect: 200 nM oligomeric Aβ
# Description: Animals: C57BI6 mice of both sexes were used for these experiments. They were obtained by a breeding colony maintained at the animal facility of Columbia University.
# Aβ was prepared as previously described (Stine at al, J Biol Chem. 2003).
# Electrophysiological Analysis was performed on […] hippocampal slices, cut with a tissue chopper and maintained in an interface chamber at 29° C. for 90 min prior to recording. Briefly, CA1 fEPSPs were recorded by placing both the stimulating and the recording electrodes in CA1 stratum radiatum. Basal synaptic transmission was assayed, either by plotting the stimulus voltages against slopes of fEPSP, or by plotting the peak amplitude of the fiber volley against the slope of the fEPSP. A 10 min baseline was recorded every min at an intensity that evokes a response, ˜35% of the maximum evoked response in the presence of vehicle. Then slices were either perfused with 200 nM oligomeric Aβ or vehicle with or without compound for 20 min prior to applying a theta burst stimulation (4 pulses at 100 Hz, with the bursts repeated at 5 Hz and each tetanus including 3 ten-burst trains separated by 15 sec). Data was subjected to statistical analyses to determine the effects of combination on inhibiting synaptic dysfunction.
# Slices were coded to blind investigators with respect to treatment. Results were expressed with Standard Error of the Mean (SEM). Level of significance was set for p<0.05. Results were analyzed by ANOVA analysis with post-hoc correction.
# [17] = cited from earlier work
# [18] = tested on: Ts65dn mouse model of Down syndrome (DS); settings: cited from earlier work
# [19] = tested on: APP, Tau, and αSYN in the cerebrospinal fluid (CSF); settings: cited from earlier work
# APP [20] = assay: APP in vitro, Western blot in SH-SY-5Y human neuroblastoma cells; type: cell-based; settings: SH-SY-5Y cells, 0, 0.1, 1, 5 and 10 μM
# Text: as §1
# [21] = 3 phase 3 clinical studies, failed; cited from earlier work
# [22] = in vivo; cited from earlier work
smiles,measurement,setting,value
"CN1CC[C@]2(C)c3cc(OC(=O)Nc4ccccc4)ccc3N(C)C12 (single isomer, unassigned) [buntanetap]",levels of neurotoxic proteins and inflammatory factors (biomarker data),[1]; AD and PD cohorts,trend in lowering
same,ADAS-Cog11 and WAIS coding,[1]; AD patients,statistically significant improvements
same,MDS-UPDRS and WAIS coding,[1]; PD patients,statistically significant improvements
same,safety and tolerability,"[1]; doses up to 80 mg, AD and PD patients",well tolerated
same,Cmax and AUC,"[1]; plasma, up to 80 mg QD",increased with dose without evidence for a plateau
same,"levels of APP, Tau, and αSYN in the cerebrospinal fluid (CSF)",[2],normalized
same,inflammation,[3]; rat brain after TBI,lowered
same,impaired synaptic transmission,[3]; rat striatum after TBI,Normalized
same,nerve cell protection,[3]; rat substantia nigra after TBI,protected
same,memory and learning,[3]; traumatic brain injury rats,Preserved
same,colonic motility,[4],Restored
same,tau in vitro,tau [5],lowers
same,Non-Responders (Number),[6]; 7.5 mg,5
same,Non-Responders (Percentage),[6]; 7.5 mg,(26.32%)
same,Responders (Number),[6]; 7.5 mg,14
same,Responders (Percentage),[6]; 7.5 mg,(73.68%)**
same,Non-Responders (Number),[6]; 15 mg,7
same,Non-Responders (Percentage),[6]; 15 mg,(28.00%)
same,Responders (Number),[6]; 15 mg,18
same,Responders (Percentage),[6]; 15 mg,(72.00%)**
same,Non-Responders (Number),[6]; 30 mg,3
same,Non-Responders (Percentage),[6]; 30 mg,(12.50%)
same,Responders (Number),[6]; 30 mg,21
same,Responders (Percentage),[6]; 30 mg,(87.50%)***
same,difference in the proportion of participants who improved relative to placebo,[6]; 30 mg group,three-fold
same,memory and learning,[7]; APP/PS1 tg mouse model of AD,Restored
same,impaired synaptic transmission,[7]; hippocampus of APP/PS1 tg mice,Normalized
same,αSYN in vivo,αSYN [8],lowers
same,αSYN in vitro,αSYN [9],lowers
same,anterograde and retrograde vesicle transport,[10],Normalized
same,levels of APP in vitro in neuroblastoma cells,APP [11],lowers
same,axonal and synaptic function,[12]; AD and PD patients,improved
same,blood brain barrier passage,[12]; AD and PD patients,crossed the blood brain barrier
same,inflammatory markers,[12]; AD and PD patients,reduced
same,neurotoxic protein biomarkers,[12]; AD and PD patients,reduced
same,cognition as measured by ADAS-Cog11 and WAIS coding speed,"[12]; AD patients, 80 mg QD, significant versus baseline",improved
same,"motor function as measured by MDS-UPDRS (Part II, III, IV and total)","[12]; PD patients, all doses 5-80 mg QD, maximum improvement for 10 & 20 mg",improved
same,WAIS speed and accuracy,"[12]; PD patients, significant versus placebo at 5 mg, 20 mg and 80 mg",improved
same,tau in vivo,tau [13],lowers
same,levels of APP and all its fragments,APP and its fragments [14],lowers
same,Kp,clinical,~8
same,duration of reduction of APP and all related peptides in hippocampus after the last dose,APP and its fragments [15]; APP/PS1 mice,at least 9 hours
same,APP and its fragments in hippocampus,APP and its fragments [15]; APP/PS1 transgenic AD mice,reduced
same,retina,rat acute glaucoma model; acute glaucoma,Preserved
same,nerve cell protection,rat acute glaucoma model; rat acute glaucoma model,protected
same,% Improvement (based on change in Residual Potential; veh minus wt ab = 100%),[16]; ab + buntanetap 1 μM,26.7%
same,Residual Potential (mean),[16]; ab + buntanetap 1 μM,152.11
same,% Improvement (based on change in Residual Potential; veh minus wt ab = 100%),[16]; ab + buntanetap 10 μM,110.7%
same,Residual Potential (mean),[16]; ab + buntanetap 10 μM,210.49
same,Aβ-induced LTP defect,[16]; buntanetap 1 μM alone,did not ameliorate
same,tolerability,[17]; doses up to 4×60 mg daily×10 days,well tolerated
same,terminal half-life,"[17]; plasma, all doses, cleared biphasically",4.3 to 4.7 h
same,memory and learning,[18],Restored
same,duration of effect in lowering neurotoxic proteins and inflammation after the last dose,"[19]; MCI subjects, CSF, 12 h sampling period",≥ 12 h
same,CSF Aβ42,[19]; MCI subjects,trend to lower
same,"CSF levels of sAPPα, sAPPβ, t-tau, p-tau, and specific inflammatory markers",[19]; MCI subjects,significantly lowered
same,half-life in CSF,[19]; MCI subjects,> 12 h
same,inflammation,[19]; human CSF of MCI subjects,lowered
same,"APP level (Western blot, in relation to Actin standard)",APP [20],lowers APP in vitro in a dose-dependent manner
"COc1ccc(CNc2c(CO)cnc3c(C4CC4)cc(C#N)cc23)cc1Cl [7a, 4-[(3-Chloro-4-methoxybenzyl)amino]-8-cyclopropyl-3-(hydroxymethyl) quinoline-6-carbonitrile]",Aβ-induced LTP defect,[16]; 7a 1 nM alone,did not ameliorate
same,% Improvement (based on change in Residual Potential; veh minus wt ab = 100%),[16]; ab + 7a 1 nM,14.23%
same,Residual Potential (mean),[16]; ab + 7a 1 nM,147.78
same,% Improvement (based on change in Residual Potential; veh minus wt ab = 100%),[16]; ab + 7a 10 nM,59.63%
same,Residual Potential (mean),[16]; ab + 7a 10 nM,174.99
same,% Improvement (based on change in Residual Potential; veh minus wt ab = 100%),[16]; ab + 7a 50 nM,106.8%
same,Residual Potential (mean),[16]; ab + 7a 50 nM,207.77
"CN1CC[C@@]2(C)c3cc(OC(=O)Nc4ccccc4)ccc3N(C)[C@@H]12 [phenserine, (−)-N-phenylcarbamoyl eseroline]",side effects,[21],high cholinomimetic side effects
COc1ccc(CN=c2[nH]c(N3CCC[C@H]3CO)ncc2C(=O)NCc2ncccn2)cc1Cl [avanafil],half-life,[22],about 5 hours
